Structures are written as SMILES.

Results on three compounds are retold here after patent publication US12454506B2, “Benzoate derivatives” (ZHEJIANG YUEJIA PHARMACEUTICALS CO., LTD, priority 2022, dated 2025).

The first data set has as its system inflammatory factor MCP-1 mRNA in H9c2 cells. Briefly: TNF-α-induced H9c2 cell inflammation model, MCP-1 mRNA by RT-PCR. Type of data set: cell-based, rat. Conditions: 2 h pre-incubation, 10 ng/mL TNF-α for 1 h, compounds A and C 5/1/0.2 mM, compound B 3/1/0.2 mM, FIG. 8. How it is done: The pH value was adjusted to 7.2 with 1 M HCl, and ultrapure water was used to reach the constant volume of 1 L. Finally, the medium was filtered into a sterile container by membrane filtration using a 0.22 m constant-volume filter. (After filtration, the pH value might rise by 0.1 to 0.3 units) • 1.3 Formulation of positive control drug: a dexamethasone solution: […] of dexamethasone was added to 5 mL of DMSO and shaken for dissolution. 1000×solution (10 mM) was obtained. The solution was aliquoted and stored in a refrigerator at −20° C. • 1.4 Formulation of test sample solution: […]
Compound A/compound B/compound C: the test sample was weighed at an appropriate mass and dissolved in DMSO to formulate a solution with a final concentration of 1 M, and the solution was aliquoted and then stored at −20° C. • 1.5 Penicillin/streptomycin biantibiotics solution: 8 million units/vial penicillin plus 40 mL of ultrapure water were mixed well, 1 g/vial streptomycin plus 50 mL of ultrapure water were mixed well, the two mixtures were mixed at a volume ratio of 1:1 to obtain 100×penicillin-streptomycin biantibiotics solution (containing 100,000 units/mL penicillin and 10 mg/mL streptomycin). After filtration through a 0.22 m sterile microfiltration membrane, the solution was aliquoted at 10 mL/tube, and stored in a refrigerator at −20° C. • 1.6 Formulation of buffer solution: • PBS: […] of NaCl, […] of KCl, […] of Na2HPO4 and […] of KH2PO4 were respectively weighed and placed in a 1 L volumetric flask; ultrapure water was added to 900 mL; the pH was adjusted to 7.2 with concentrated hydrochloric acid; and the volume was finalized to 1 L. The mixture was stored at room temperature. • 2. […]
`CC[N+]([O-])(CC)CCOC(=O)c1ccccc1OC(C)=O` [compound A]: the “inhibition of the elevation of the mRNA level of the inflammatory factor MCP-1” value is “dose-dependent inhibition”.
On the same count and under the same terms, then `CCN(CC)CCOC(=O)c1ccccc1OC(=O)CCl` [compound B], with “dose-dependent inhibition”.
Still for that read-out and setting: then `CCN(CC)CCOC1(C)OC(=O)c2ccccc2O1` (stereo not drawn) [compound C], with “dose-dependent inhibition”.

Tested on in a further data set: not listed separately
Briefly: Solubility in purified water. It is filed as physicochemical. Conditions: thermodynamic from solid, compound added stepwise to 2 mL until hypersaturated or 2.0 g added. As to the method: About […] of the compound (A or B or C) to be tested was weighed and placed into a 10 mL sample tube, 2 mL of purified water was added, and the mixture was mixed well. In case of complete dissolution, about […] of the compound to be tested was replenished continuously, and the mixture was mixed well until a hypersaturated state was reached or the compound to be tested was added to 2.0 g. If the compound to be tested was added to […] and is still completely dissolved, the solubility of the compound to be tested in water was recorded as >1.0 g/mL.
The term solubility denotes the dissolved amount per volume that the medium holds. High values mean much dissolved substance, low ones little dissolved substance. `CC[N+]([O-])(CC)CCOC(=O)c1ccccc1OC(C)=O` [compound A] gave a solubility of over 1000 mg/mL.
Still for that read-out and setting: then `CCN(CC)CCOC(=O)c1ccccc1OC(=O)CCl` [compound B], with over 1000 mg/mL; and `CCN(CC)CCOC1(C)OC(=O)c2ccccc2O1` (stereo not drawn) [compound C], with over 1000 mg/mL.
